According to ChEMBL document CHEMBL1201862, “PubChem BioAssay data set” (2004):
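A five-concentration, 48-hour dose response in 96-well plates underlies each endpoint, interpolated linearly between surrounding concentrations. The concentration for 50% growth inhibition is given as GI50.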 The source made the active and inactive calls. Rule as the data show it: active = GI50 up to about 1.1 µM and inactive = higher.

Key:
Assay in all cases: growth of human tumour cells (NCI), 48 h
786-0 = system: 786-0
A498 = system: A498
A549 = system: A549
ACHN = system: ACHN
BT-549 = system: BT-549
CAKI-1 = system: CAKI-1
CCRF-CEM = system: CCRF-CEM
COLO 205 = system: COLO 205
DU-145 = system: DU-145
EKVX = system: EKVX
HCT-116 = system: HCT-116
HCT-15 = system: HCT-15
HL-60 = system: HL-60
HOP-92 = system: HOP-92
HT-29 = system: HT-29
Hs-578T = system: Hs-578T
IGROV-1 = system: IGROV-1
K562 = system: K562
KM12 = system: KM12
M14 = system: M14
MDA-MB-231 = system: MDA-MB-231
MDA-MB-435 = system: MDA-MB-435
MDA-N = system: MDA-N
MOLT-4 = system: MOLT-4
Malme-3M = system: Malme-3M
NCI-H226 = system: NCI-H226
NCI-H23 = system: NCI-H23
NCI-H460 = system: NCI-H460
NCI-H522 = system: NCI-H522
NCI/ADR-RES = system: NCI/ADR-RES
OVCAR-4 = system: OVCAR-4
OVCAR-5 = system: OVCAR-5
OVCAR-8 = system: OVCAR-8
PC-3 = system: PC-3
RPMI-8226 = system: RPMI-8226
SF-268 = system: SF-268
SF-295 = system: SF-295
SF-539 = system: SF-539
SK-MEL-28 = system: SK-MEL-28
SK-MEL-2 = system: SK-MEL-2
SK-MEL-5 = system: SK-MEL-5
SK-OV-3 = system: SK-OV-3
SN12C = system: SN12C
SNB-19 = system: SNB-19
SR = system: SR
SW-620 = system: SW-620
T47D = system: T47D
TK-10 = system: TK-10
U-251 = system: U-251
UACC-257 = system: UACC-257
UACC-62 = system: UACC-62
UO-31 = system: UO-31
HOP-62 = system: HOP-62
MCF7 = system: MCF7
OVCAR-3 = system: OVCAR-3
HCC 2998 = system: HCC 2998
LOX IMVI = system: LOX IMVI
RXF 393 = system: RXF 393
SNB-75 = system: SNB-75

## O=C(O)c1cnc(-n2[nH]c3c(c2=O)CCCC3)[nH]c1=O
786-0
  GI50: > 100 µM (inactive)
A498
  GI50: > 100 µM (inactive)
A549
  GI50: > 100 µM (inactive)
ACHN
  GI50: > 100 µM (inactive)
BT-549
  GI50: > 100 µM (inactive)
CAKI-1
  GI50: > 100 µM (inactive)
CCRF-CEM
  GI50: > 100 µM (inactive)
COLO 205
  GI50: > 100 µM (inactive)
DU-145
  GI50: > 100 µM (inactive)
EKVX
  GI50: > 100 µM (inactive)
HCT-116
  GI50: > 100 µM (inactive)
HCT-15
  GI50: > 100 µM
HL-60
  GI50: > 100 µM (inactive)
HOP-92
  GI50: 83.9 µM (inactive)
HT-29
  GI50: > 100 µM (inactive)
Hs-578T
  GI50: > 100 µM (inactive)
IGROV-1
  GI50: > 100 µM (inactive)
K562
  GI50: > 100 µM (inactive)
KM12
  GI50: > 100 µM (inactive)
M14
  GI50: > 100 µM (inactive)
MDA-MB-231
  GI50: > 100 µM (inactive)
MDA-MB-435
  GI50: > 100 µM (inactive)
MDA-N
  GI50: > 100 µM (inactive)
MOLT-4
  GI50: > 100 µM (inactive)
Malme-3M
  GI50: > 100 µM (inactive)
NCI-H226
  GI50: > 100 µM (inactive)
NCI-H23
  GI50: > 100 µM (inactive)
NCI-H460
  GI50: > 100 µM (inactive)
NCI-H522
  GI50: > 100 µM (inactive)
NCI/ADR-RES
  GI50: > 100 µM (inactive)
OVCAR-4
  GI50: > 100 µM (inactive)
OVCAR-5
  GI50: > 100 µM (inactive)
OVCAR-8
  GI50: > 100 µM (inactive)
PC-3
  GI50: > 100 µM (inactive)
RPMI-8226
  GI50: > 100 µM (inactive)
SF-268
  GI50: > 100 µM (inactive)
SF-295
  GI50: > 100 µM (inactive)
SF-539
  GI50: > 100 µM (inactive)
SK-MEL-28
  GI50: > 100 µM (inactive)
SK-MEL-2
  GI50: > 100 µM (inactive)
SK-MEL-5
  GI50: > 100 µM (inactive)
SK-OV-3
  GI50: > 100 µM (inactive)
SN12C
  GI50: > 100 µM (inactive)
SNB-19
  GI50: > 100 µM (inactive)
SR
  GI50: > 100 µM (inactive)
SW-620
  GI50: > 100 µM (inactive)
T47D
  GI50: > 100 µM (inactive)
TK-10
  GI50: > 100 µM (inactive)
U-251
  GI50: > 100 µM (inactive)
UACC-257
  GI50: > 100 µM (inactive)
UACC-62
  GI50: > 100 µM (inactive)
UO-31
  GI50: > 100 µM (inactive)

## CCOC(=O)c1c(NC(=S)NCc2ccccc2)sc2c1CCN(C)C2
A498
  GI50: 59.6 µM (inactive)
A549
  GI50: 53.6 µM (inactive)
ACHN
  GI50: 89.5 µM (inactive)
BT-549
  GI50: 59 µM (inactive)
CAKI-1
  GI50: > 100 µM (inactive)
CCRF-CEM
  GI50: 17.6 µM (inactive)
COLO 205
  GI50: 46.1 µM (inactive)
DU-145
  GI50: 64.1 µM (inactive)
EKVX
  GI50: 78 µM (inactive)
HCT-116
  GI50: 67.3 µM (inactive)
HCT-15
  GI50: 68.1 µM
HL-60
  GI50: 17.4 µM (inactive)
HOP-62
  GI50: > 100 µM (inactive)
HT-29
  GI50: 45.5 µM (inactive)
Hs-578T
  GI50: 64.4 µM (inactive)
IGROV-1
  GI50: 33 µM (inactive)
K562
  GI50: 21.7 µM (inactive)
KM12
  GI50: 24.4 µM (inactive)
M14
  GI50: > 100 µM (inactive)
MCF7
  GI50: 52.6 µM (inactive)
MDA-MB-231
  GI50: 47.8 µM (inactive)
MDA-N
  GI50: > 100 µM (inactive)
MOLT-4
  GI50: 20.4 µM (inactive)
NCI-H226
  GI50: > 100 µM (inactive)
NCI-H23
  GI50: 65.5 µM (inactive)
NCI-H460
  GI50: 40.8 µM (inactive)
NCI/ADR-RES
  GI50: > 100 µM (inactive)
OVCAR-3
  GI50: 36.5 µM (inactive)
OVCAR-5
  GI50: > 100 µM (inactive)
OVCAR-8
  GI50: 82.2 µM (inactive)
PC-3
  GI50: 35.4 µM (inactive)
RPMI-8226
  GI50: 28.5 µM (inactive)
SF-268
  GI50: 64 µM (inactive)
SF-295
  GI50: 57.3 µM (inactive)
SF-539
  GI50: 69.2 µM (inactive)
SK-MEL-2
  GI50: 39.5 µM (inactive)
SK-MEL-5
  GI50: 45.1 µM (inactive)
SN12C
  GI50: 42.7 µM (inactive)
SNB-19
  GI50: > 100 µM (inactive)
T47D
  GI50: 41.5 µM (inactive)
TK-10
  GI50: 64.9 µM (inactive)
UACC-257
  GI50: > 100 µM (inactive)
UACC-62
  GI50: > 100 µM (inactive)
UO-31
  GI50: 64.4 µM (inactive)

## CCC(=O)Nc1ccc(NCC(=O)Nc2ccc(OC)cc2)cc1
786-0
  GI50: 20.3 µM (inactive)
A498
  GI50: 27.7 µM (inactive)
A549
  GI50: 54 µM (inactive)
ACHN
  GI50: 40.5 µM (inactive)
BT-549
  GI50: 23.2 µM (inactive)
CAKI-1
  GI50: 13.5 µM (inactive)
CCRF-CEM
  GI50: 25.4 µM (inactive)
COLO 205
  GI50: 31.8 µM (inactive)
DU-145
  GI50: 31.8 µM (inactive)
EKVX
  GI50: 16.7 µM (inactive)
HCC 2998
  GI50: 6.76 µM (inactive)
HCT-116
  GI50: 26.1 µM (inactive)
HCT-15
  GI50: 32.8 µM
HL-60
  GI50: 28.2 µM (inactive)
HOP-62
  GI50: 2.99 µM (inactive)
HOP-92
  GI50: 23.8 µM (inactive)
HT-29
  GI50: 20.9 µM (inactive)
Hs-578T
  GI50: 30.3 µM (inactive)
IGROV-1
  GI50: 25.8 µM (inactive)
K562
  GI50: 35.6 µM (inactive)
KM12
  GI50: 17.4 µM (inactive)
LOX IMVI
  GI50: 16.6 µM (inactive)
M14
  GI50: 49.3 µM (inactive)
MCF7
  GI50: 17.1 µM (inactive)
MDA-MB-435
  GI50: 30.5 µM (inactive)
MDA-N
  GI50: 29.8 µM (inactive)
MOLT-4
  GI50: 39 µM (inactive)
Malme-3M
  GI50: 21.6 µM (inactive)
NCI-H226
  GI50: 12.4 µM (inactive)
NCI-H23
  GI50: 19.9 µM (inactive)
NCI-H522
  GI50: 15.2 µM (inactive)
NCI/ADR-RES
  GI50: 28.1 µM (inactive)
OVCAR-3
  GI50: 25.2 µM (inactive)
OVCAR-4
  GI50: 13.2 µM (inactive)
OVCAR-5
  GI50: 17.4 µM (inactive)
OVCAR-8
  GI50: 19.7 µM (inactive)
PC-3
  GI50: 26.2 µM (inactive)
RPMI-8226
  GI50: 32.9 µM (inactive)
RXF 393
  GI50: 16.4 µM (inactive)
SF-268
  GI50: 17.7 µM (inactive)
SF-295
  GI50: 46.7 µM (inactive)
SF-539
  GI50: 17.5 µM (inactive)
SK-MEL-28
  GI50: 49.1 µM (inactive)
SK-MEL-2
  GI50: 18.4 µM (inactive)
SK-MEL-5
  GI50: 17.5 µM (inactive)
SK-OV-3
  GI50: 8.67 µM (inactive)
SN12C
  GI50: 18.1 µM (inactive)
SNB-19
  GI50: 13.2 µM (inactive)
SNB-75
  GI50: 13.7 µM (inactive)
SR
  GI50: 31.8 µM (inactive)
SW-620
  GI50: 35.2 µM (inactive)
T47D
  GI50: 21.1 µM (inactive)
UACC-257
  GI50: 7.8 µM (inactive)
UACC-62
  GI50: 19.1 µM (inactive)
UO-31
  GI50: 45.5 µM (inactive)
